# Assay results as given in patent publication US10493045B2, “Method for treating alcohol dependence or alcohol abuse” (priority 2016, dated 2019).
# Values joined by “and” are separate entries in the source; they are usually repeats but may differ in a detail not shown here. Equal values may be shown once.
# How the values were obtained:
# [1] = test system: plasma TNF-α, CRP, TGF-β1, IL-8, IL-10, and BDNF; experiment: Plasma cytokine and BDNF levels by ELISA during 12-week add-on memantine treatment; type: in vivo, human
# Experimental: (§1) Eligible patients were given low-dose (less than 5 mg/day) add-on memantine (5 mg/day) after an initial screening, with open-label valproic acid (VPA) treatment (500 or 1000 mg/day or […] in plasma) which had begun when they joined the study. The severity of mood symptoms was assessed by using the Hamilton Depression Rating Scale (HDRS) and the Young Mania Rating Scale (YMRS). Only patients with moderate mood symptoms (HDRS≥18 or YMRS≥14) were recruited. The exact amount of alcohol used by each patient was assessed by using the Chinese version of the Modified SADS-L. Symptom severity and alcohol use were assessed at baseline, and treatment responses were measured on day 7 of weeks 1, 2, 4, 8, and 12. Concomitant benzodiazepine medications (lorazepam<8 mg and chlordiazepoxide<240 mg) were used for nighttime sedation and withdrawal symptoms during the study. Up to 20 mg/day of fluoxetine was permitted for associated depressive symptoms, and 1-3 mg of risperidone was used for hypomanic symptoms.
# Ten milliliters of whole blood was withdrawn from the antecubital vein of each patient when clinical severity was assessed: at baseline, and on day 7 of weeks 1, 2, 4, 8, and 12. Plasma, which was isolated from the whole blood after it had been centrifuged at 3000 g for 15 min at 4° C., was immediately stored at −80° C. The enzyme-linked immunosorbent assay was used to quantify the cytokine levels by ELISA reader (SpectraMax® M2e, Molecular Devices, USA). Sample processing and data analysis were done according to the manufacturer's instructions. The immunological parameters—plasma TNF-α, CRP, TGF-β1, IL-8, IL-10, and BDNF—were analyzed.
# (§2) The intent to-treat (ITT) analysis set included all patients who had taken at least one dose of the studied drug, and had undergone one baseline assessment and at least one post-baseline assessment. All outcome variables—HDRS, YMRS, cytokine levels, plasma BDNF levels, and metabolic parameters—in the ITT set were analyzed. Missing data were filled in by using the last observation carried forward (LOCF) method.
# (§3) The overall within-group changes of each outcome over 12 weeks were analyzed by using generalized estimating equations (GEEs). The present invention ran 10 models and each outcome was deemed as a dependent variable. In each model, treatment duration, gender, and age were considered as independent variables. The covariance structure used was the autoregressive (AR [1]) model. The significance of change of each outcome over 12-week follow-up was represented by the variable “treatment duration.” Linear regression analysis was used to analyze correlations between changes in alcohol use and changes in cytokine and BDNF levels in 12 weeks. Changes in alcohol use were dependent variables, and changes in HDRS and YMRS scores, and in plasma cytokine and BDNF levels (controlled for gender, age, and baseline clinical severity) were independent variables. SPSS 22.0 for Windows was used for all statistical computations. Significance was set at p<0.05.
# [2] = test system: opioid-dependent patients undergoing methadone maintenance treatment; settings: add-on memantine; cited from earlier work
# [3] = Plasma memantine concentration in treated patients; type: in vivo, human; settings: patients given 5 mg/day of memantine
# post-dependent (PD) rats = settings: injection 25 mg/kg; cited from earlier work
# alcohol use = settings: up to 40 mg/day of memantine; cited from earlier work
# [4] = test system: BD-II patients with comorbid alcohol dependence; experiment: 12-week open-label low-dose add-on memantine treatment: clinical severity (HDRS, YMRS) and alcohol use; type: in vivo, human
# Description: BD-II patients with comorbid alcohol dependence were recruited from outpatient and inpatient settings in Taiwan. All patients were initially evaluated by an attending psychiatrist and then given a structural interview by a clinical psychologist to determine according to the Diagnostic and Statistical Manual of Mental Disorders, Fourth Edition, Text Revision (DSM-IV-TR), and the Chinese version of the Modified Schedule of Affective Disorder and Schizophrenia-Life Time (SADS-L) was used, which had good inter-rater reliability. Patients suffering from major mental illnesses other than BD-II and alcohol dependence and patients who had taken memantine within 1 week before the study began were excluded.
# as §1, §2, §3
# [5] = test system: morphine-induced conditioned-place-preference behavior; settings: rats; low-dose 0.02 mg/kg; cited from earlier work
# NMDA receptors = settings: read-out: 50% inhibition concentration [IC50], block of NMDA receptors; cited from earlier work
structure (smiles),measurement,setting,value
CC12CC3CC(C)(C1)CC(N)(C3)C2 [memantine],"IL-10, mean at endpoint","[1]; endpoint 12 weeks, n = 26, baseline mean 2.09",1.92
same,"TNF-α, mean at endpoint","[1]; endpoint 12 weeks, n = 26, baseline mean 2.64",2.66
same,"IL-8, mean at endpoint","[1]; endpoint 12 weeks, n = 26, baseline mean 17.64",10.22
same,"CRP, mean at endpoint","[1]; endpoint 12 weeks, n = 26, baseline mean 2960.48",2382.29
same,"BDNF, mean at endpoint","[1]; endpoint 12 weeks, n = 26, baseline mean 16196.64",18910.46
same,"TGF-β1, mean at endpoint","[1]; endpoint 12 weeks, n = 26, baseline mean 30884.32",27653.85
same,Change in TGF-β1 over 12 weeks of treatment,"[1]; within-group change, GEE, p 0.080",−3586.37
same,Change in IL-10 over 12 weeks of treatment,"[1]; within-group change, GEE, p 0.605",−0.182
same,Change in TNF-α over 12 weeks of treatment,"[1]; within-group change, GEE, p 0.89",0.04
same,Plasma tumor necrosis factor-α (TNF-α) levels,[2],significantly downregulates
same,Required methadone dose,[2],reduces
same,Transforming growth factor-β1 (TGF-β1) levels,[2],upregulates
same,Plasma memantine concentrations,[3],10-50 ng/ml and 0.05-0.2 μM
same,Alcohol drinking during acute withdrawal,post-dependent (PD) rats,reduced
same,Relapses of alcohol dependence after protracted abstinence,post-dependent (PD) rats,did not reduce
same,Alcohol use as compared to placebo,alcohol use,not significantly reduced
same,Patients who stopped drinking during the first week of memantine treatment,"[4]; 15 patients of 45, first week",33.3%
same,Patients who reduced their alcohol use to 0 unit after 12 weeks,"[4]; 22/26 patients, after 12 weeks",84.6%
same,"HDRS, mean at endpoint","[4]; BD-II patients with comorbid alcohol dependence, add-on memantine less than 5 mg/day plus VPA, endpoint 12 weeks, n = 26, baseline mean 14.4 (n = 45)",9.4
same,"Reduction of alcohol use after 12 weeks of treatment, all of the patients",[4]; after 12 weeks,> 50%
same,"YMRS, mean at endpoint","[4]; endpoint 12 weeks, n = 26, baseline mean 13.8 (n = 45)",9.4
same,"Alcohol use (unit), mean at endpoint","[4]; endpoint 12 weeks, n = 26, baseline mean 73.9 (n = 45)",11.8 unit
same,Morphine-induced conditioned-place-preference behavior,[5],abolishes
same,IC50,NMDA receptors,2000 to 3000 nM
